The results in this text go back to US20140286892A1, “USE OF A COMPOUND COMPRISING AT LEAST ONE NUCLEOPHILIC FUNCTION FOR CAPTURING CARBONYL COMPOUNDS RESULTING FROM THE REACTION BETWEEN ONE OR MORE COMPOUNDS CONSTITUTING SEBUM AND OZONE” (L'OREAL, priority 2011, published 2014).

This assay in a line: Capture of nonanal applied to skin after treatment with the cosmetic composition. The assay is classed as in vivo. As to conditions: composition with 10% by weight APTES, pH 9 (lactic acid), 4 mg per cm^2 on skin, left to dry, then nonanal applied. The method, then:
A cosmetic composition containing 10% by weight of APTES sold under the name Dow Corning is prepared. The pH of the composition is brought to 9 by adding lactic acid. The cosmetic composition is then applied to the skin in a proportion of 4 mg per cm^2 over the whole of the body, and then left to dry. Nonanal, which is an aldehyde that can be formed following the action of ozone on sebum, is then applied to the skin. An aqueous cosmetic composition containing 1.4% by weight of active materials of a vinylformamide/vinylformamine copolymer sold under the name Lupamine 9030 by the company BASF is prepared. It is applied to the skin in a proportion of 4 mg per cm^2 over the whole of the body, and then left to dry. Nonanal, which is a compound structurally close to those which are formed following the action of ozone on sebum, is then applied to the skin.

Take `CCO[Si](CCCN)(OCC)OCC` [APTES, γ-aminopropyltriethoxysilane]: the “trapping of nonanal in the skin” value is reported as “trapped”.
